Laboratory results as given in ChEMBL document CHEMBL5726876, “NHE3-binding compounds and methods for inhibiting phosphate transport” (2019).

Assay: Cell-based activity under Prompt Conditions: Cell-based activity under Prompt Conditions. Rat or human NHE3-mediated Na+-dependent H+ antiport was measured using a modification of the pH sensitive dye method originally reported by Paradiso (PNAS USA. 81:7436-7440, 1984). Opossum kidney (OK) cells were obtained from the ATCC and propagated per their instructions. The rat NHE3 gene (GenBank M85300) or the human NHE3 gene (GenBank NM_004174.1) was introduced into OK cells via electroporation, and cells were seeded into 96 well plates and grown overnight. Medium was aspirated from the wells, cells were washed twice with NaCl-HEPES buffer (100 mM NaCl, 50 mM HEPES, 10 mM glucose, 5 mM KCl, 2 mM CaCl2, 1 mM MgCl2, pH 7.4), then incubated for 30 min at room temperature with NH4Cl-HEPES buffer (20 mM NH4Cl, 80 mM NaCl, 50 mM HEPES, 5 mM KCl, 2 mM CaCl2, 1 mM MgCl2, pH 7.4) containing 5 μM bis(acetoxymethyl) 3,3′-(3′,6′-bis(acetoxymethoxy)-5-((acetoxymethoxy)carbonyl)-3-oxo-3H-spiro[isobenzofuran-1,9′-xanthene]-2′,7′-diyl)dipropanoate (BCECF-AM).Cells were washed twice with Ammonium free, Na+-free HEPES (100 mM choline, 50 mM HEPES, 10 mM glucose, 5 mM KCl, 2 mM CaCl2, 1 mM MgCl2, pH 7.4) and incubated in the same buffer for 10 minutes at room temperature to lower intracellular pH. […] Initial rates were plotted as the average 2 or more replicates, and pIC50 values were estimated using GraphPad Prism.

Row | SMILES | IC50 [nM]
1 | O=C(NCCCCNC(=O)NCCOCCOCCNS(=O)(=O)c1ccc(O[C@H]2c3cc(Cl)cc(F)c3C[C@@H]2N2CC[C@@H](O)C2)cc1)NCCOCCOCCNS(=O)(=O)c1ccc(O[C@H]2c3cc(Cl)cc(F)c3C[C@@H]2N2CC[C@@H](O)C2)cc1 | < 10000
2 | CN1Cc2c(Cl)cc(Cl)cc2[C@H](c2cccc(S(=O)(=O)NCCOCCOCCNC(=O)CCC(CCC(=O)NCCOCCOCCNS(=O)(=O)c3cccc([C@@H]4CN(C)Cc5c(Cl)cc(Cl)cc54)c3)(CCC(=O)NCCOCCOCCNS(=O)(=O)c3cccc([C@@H]4CN(C)Cc5c(Cl)cc(Cl)cc54)c3)NC(=O)NCC(=O)O)c2)C1 | 29.5
3 | CN1Cc2c(Cl)cc(Cl)cc2[C@H](c2cccc(S(=O)(=O)NCCOCCOCCNC(=O)CCC(CCC(=O)NCCOCCOCCNS(=O)(=O)c3cccc([C@@H]4CN(C)Cc5c(Cl)cc(Cl)cc54)c3)(CCC(=O)NCCOCCOCCNS(=O)(=O)c3cccc([C@@H]4CN(C)Cc5c(Cl)cc(Cl)cc54)c3)NC(=O)Cc3nnn[nH]3)c2)C1 | 200
4 | CC(=O)C(CCC(=O)NCCOCCOCCNS(=O)(=O)c1cccc([C@@H]2CN(C)Cc3c(Cl)cc(Cl)cc32)c1)(CCC(=O)NCCOCCOCCNS(=O)(=O)c1cccc([C@@H]2CN(C)Cc3c(Cl)cc(Cl)cc32)c1)CCC(=O)NCCOCCOCCNS(=O)(=O)c1cccc([C@@H]2CN(C)Cc3c(Cl)cc(Cl)cc32)c1 | 316
5 | CN(C)[C@H]1Cc2c(Cl)cc(Cl)cc2[C@@H]1Oc1ccc(S(=O)(=O)NCCOCCOCCNC(=O)COCC(=O)NCCOCCOCCNS(=O)(=O)c2ccc(O[C@H]3c4cc(Cl)cc(Cl)c4C[C@@H]3N(C)C)cc2)cc1 | 7.94
6 | CN(C)[C@H]1Cc2c(Cl)cc(Cl)cc2[C@@H]1Oc1ccc(S(=O)(=O)NCCOCCOCCNC(=O)CCC(C)(N)CCC(=O)NCCOCCOCCNS(=O)(=O)c2ccc(O[C@H]3c4cc(Cl)cc(Cl)c4C[C@@H]3N(C)C)cc2)cc1 | 2.51
7 | CN(C)[C@H]1Cc2c(Cl)cc(Cl)cc2[C@@H]1Oc1ccc(S(=O)(=O)NCCOCCOCCNC(=O)CCC(=O)NCCOCCOCCNS(=O)(=O)c2ccc(O[C@H]3c4cc(Cl)cc(Cl)c4C[C@@H]3N(C)C)cc2)cc1 | 3.98
8 | CN1Cc2c(Cl)cc(Cl)cc2[C@H](c2cccc(S(=O)(=O)NCCOCCOCCNC(=O)CCC(CCC(=O)NCCOCCOCCNS(=O)(=O)c3cccc([C@@H]4CN(C)Cc5c(Cl)cc(Cl)cc54)c3)(CCC(=O)NCCOCCOCCNS(=O)(=O)c3cccc([C@@H]4CN(C)Cc5c(Cl)cc(Cl)cc54)c3)NC(=O)N[C@@H](CO)C(=O)O)c2)C1 | 12.6
9 | CN(C)[C@H]1Cc2c(Cl)cc(Cl)cc2[C@@H]1Oc1ccc(S(=O)(=O)NCCOCCOCCNC(=O)Nc2ccc(NC(=O)NCCOCCOCCNS(=O)(=O)c3ccc(O[C@H]4c5cc(Cl)cc(Cl)c5C[C@@H]4N(C)C)cc3)cc2)cc1 | < 10000
10 | CN1Cc2c(Cl)cc(Cl)cc2[C@H](c2cccc(S(=O)(=O)NCCOCCOCCNC(=O)CCC(CCC(=O)NCCOCCOCCNS(=O)(=O)c3cccc([C@@H]4CN(C)Cc5c(Cl)cc(Cl)cc54)c3)(CCC(=O)NCCOCCOCCNS(=O)(=O)c3cccc([C@@H]4CN(C)Cc5c(Cl)cc(Cl)cc54)c3)NC(=O)NCCS(=O)(=O)O)c2)C1 | 20
11 | CN1Cc2c(Cl)cc(Cl)cc2[C@H](c2cccc(S(=O)(=O)NCCOCCOCCN(C)C(=O)CCC(N)(CCC(=O)N(C)CCOCCOCCNS(=O)(=O)c3cccc([C@@H]4CN(C)Cc5c(Cl)cc(Cl)cc54)c3)CCC(=O)N(C)CCOCCOCCNS(=O)(=O)c3cccc([C@@H]4CN(C)Cc5c(Cl)cc(Cl)cc54)c3)c2)C1 | 15.8
12 | CN(C)[C@H]1Cc2c(F)cc(Cl)cc2[C@@H]1Oc1ccc(S(=O)(=O)NCCOCCOCCNC(=O)NCCCCNC(=O)NCCOCCOCCNS(=O)(=O)c2ccc(O[C@H]3c4cc(Cl)cc(F)c4C[C@@H]3N(C)C)cc2)cc1 | < 10000
13 | CN(C)CC(=O)NC(CCC(=O)N(C)CCOCCOCCNS(=O)(=O)c1cccc([C@@H]2CN(C)Cc3c(Cl)cc(Cl)cc32)c1)(CCC(=O)N(C)CCOCCOCCNS(=O)(=O)c1cccc([C@@H]2CN(C)Cc3c(Cl)cc(Cl)cc32)c1)CCC(=O)N(C)CCOCCOCCNS(=O)(=O)c1cccc([C@@H]2CN(C)Cc3c(Cl)cc(Cl)cc32)c1 | 31.6
14 | CN1Cc2c(Cl)cc(Cl)cc2[C@H](c2cccc(S(=O)(=O)NCCOCCOCCNC(=O)NCCCC(CCCNC(=O)NCCOCCOCCNS(=O)(=O)c3cccc([C@@H]4CN(C)Cc5c(Cl)cc(Cl)cc54)c3)(CCCNC(=O)NCCOCCOCCNS(=O)(=O)c3cccc([C@@H]4CN(C)Cc5c(Cl)cc(Cl)cc54)c3)NC(=O)COCC(=O)O)c2)C1 | 0.631
15 | CN1Cc2c(Cl)cc(Cl)cc2[C@H](c2cccc(S(=O)(=O)NCCOCCOCCNC(=O)CCC(CCC(=O)NCCOCCOCCNS(=O)(=O)c3cccc([C@@H]4CN(C)Cc5c(Cl)cc(Cl)cc54)c3)(CCC(=O)NCCOCCOCCNS(=O)(=O)c3cccc([C@@H]4CN(C)Cc5c(Cl)cc(Cl)cc54)c3)NC(=O)NC(CO)(CO)CO)c2)C1 | < 10000
16 | C[C@@H](O)[C@H](NC(=O)NC(CCC(=O)NCCOCCOCCNS(=O)(=O)c1cccc([C@@H]2CN(C)Cc3c(Cl)cc(Cl)cc32)c1)(CCC(=O)NCCOCCOCCNS(=O)(=O)c1cccc([C@@H]2CN(C)Cc3c(Cl)cc(Cl)cc32)c1)CCC(=O)NCCOCCOCCNS(=O)(=O)c1cccc([C@@H]2CN(C)Cc3c(Cl)cc(Cl)cc32)c1)C(N)=O | 63.1
17 | CN(C)[C@H]1Cc2c(Cl)cc(Cl)cc2[C@@H]1Oc1ccc(S(=O)(=O)NCCOCCOCCNC(=O)[C@H](O)[C@@H](O)C(=O)NCCOCCOCCNS(=O)(=O)c2ccc(O[C@H]3c4cc(Cl)cc(Cl)c4C[C@@H]3N(C)C)cc2)cc1 | 2.51
18 | CN1Cc2c(Cl)cc(Cl)cc2[C@H](c2cccc(S(=O)(=O)NCCOCCOCCNC(=O)NCCCC(N)(CCCNC(=O)NCCOCCOCCNS(=O)(=O)c3cccc([C@@H]4CN(C)Cc5c(Cl)cc(Cl)cc54)c3)CCCNC(=O)NCCOCCOCCNS(=O)(=O)c3cccc([C@@H]4CN(C)Cc5c(Cl)cc(Cl)cc54)c3)c2)C1 | 100
19 | CN1Cc2c(Cl)cc(Cl)cc2[C@H](c2cccc(S(=O)(=O)N(CCO)CCOCCOCCNC(=O)NCCCN(CCCNC(=O)NCCOCCOCCN(CCO)S(=O)(=O)c3cccc([C@@H]4CN(C)Cc5c(Cl)cc(Cl)cc54)c3)CCCNC(=O)NCCOCCOCCN(CCO)S(=O)(=O)c3cccc([C@@H]4CN(C)Cc5c(Cl)cc(Cl)cc54)c3)c2)C1 | 15.8
20 | CN1Cc2c(Cl)cc(Cl)cc2[C@H](c2cccc(S(=O)(=O)NCCOCCOCCNC(=O)CCC(CCC(=O)NCCOCCOCCNS(=O)(=O)c3cccc([C@@H]4CN(C)Cc5c(Cl)cc(Cl)cc54)c3)(CCC(=O)NCCOCCOCCNS(=O)(=O)c3cccc([C@@H]4CN(C)Cc5c(Cl)cc(Cl)cc54)c3)NC(=O)Cn3ccnc3)c2)C1 | 158
21 | CN(C)[C@H]1Cc2c(Cl)cc(Cl)cc2[C@@H]1Oc1ccc(S(=O)(=O)NCCOCCOCCNC(=O)C(C)(C)C(=O)NCCOCCOCCNS(=O)(=O)c2ccc(O[C@H]3c4cc(Cl)cc(Cl)c4C[C@@H]3N(C)C)cc2)cc1 | 5.01
22 | CN1Cc2c(Cl)cc(Cl)cc2[C@H](c2cccc(S(=O)(=O)NCCOCCOCCNC(=O)NCCC(CCNC(=O)NCCOCCOCCNS(=O)(=O)c3cccc([C@@H]4CN(C)Cc5c(Cl)cc(Cl)cc54)c3)(CCNC(=O)NCCOCCOCCNS(=O)(=O)c3cccc([C@@H]4CN(C)Cc5c(Cl)cc(Cl)cc54)c3)NC(=O)COCC(=O)O)c2)C1 | 6.31
23 | CN1Cc2c(Cl)cc(Cl)cc2[C@H](c2cccc(S(=O)(=O)NCCOCCOCCNC(=O)NCCCC(CCCNC(=O)NCCOCCOCCNS(=O)(=O)c3cccc([C@@H]4CN(C)Cc5c(Cl)cc(Cl)cc54)c3)(CCCNC(=O)NCCOCCOCCNS(=O)(=O)c3cccc([C@@H]4CN(C)Cc5c(Cl)cc(Cl)cc54)c3)NC(=O)CCC(=O)O)c2)C1 | 20
24 | CC(O)C(CCC(=O)NCCOCCOCCNS(=O)(=O)c1cccc([C@@H]2CN(C)Cc3c(Cl)cc(Cl)cc32)c1)(CCC(=O)NCCOCCOCCNS(=O)(=O)c1cccc([C@@H]2CN(C)Cc3c(Cl)cc(Cl)cc32)c1)CCC(=O)NCCOCCOCCNS(=O)(=O)c1cccc([C@@H]2CN(C)Cc3c(Cl)cc(Cl)cc32)c1 (some centres undefined) | 25.1
25 | CN1Cc2c(Cl)cc(Cl)cc2[C@H](c2cccc(S(=O)(=O)NCCOCCOCCNC(=O)NCCCC(CCCNC(=O)NCCOCCOCCNS(=O)(=O)c3cccc([C@@H]4CN(C)Cc5c(Cl)cc(Cl)cc54)c3)(CCCNC(=O)NCCOCCOCCNS(=O)(=O)c3cccc([C@@H]4CN(C)Cc5c(Cl)cc(Cl)cc54)c3)NC(=O)NC[C@H](O)[C@@H](O)[C@H](O)[C@H](O)CO)c2)C1 | 1580
26 | CN1Cc2c(Cl)cc(Cl)cc2[C@H](c2cccc(S(=O)(=O)NCCOCCOCCNC(=O)CCC(CCCNC(=O)NCCOCCOCCNS(=O)(=O)c3cccc([C@@H]4CN(C)Cc5c(Cl)cc(Cl)cc54)c3)(CCC(=O)NCCOCCOCCNS(=O)(=O)c3cccc([C@@H]4CN(C)Cc5c(Cl)cc(Cl)cc54)c3)NC(=O)NCP(=O)(O)O)c2)C1 | 50.1
27 | CN1CCN(C(=O)NC(CCC(=O)NCCOCCOCCNS(=O)(=O)c2cccc([C@@H]3CN(C)Cc4c(Cl)cc(Cl)cc43)c2)(CCC(=O)NCCOCCOCCNS(=O)(=O)c2cccc([C@@H]3CN(C)Cc4c(Cl)cc(Cl)cc43)c2)CCC(=O)NCCOCCOCCNS(=O)(=O)c2cccc([C@@H]3CN(C)Cc4c(Cl)cc(Cl)cc43)c2)CC1 | 126
28 | CN1Cc2c(Cl)cc(Cl)cc2[C@H](c2cccc(S(=O)(=O)NCCOCCOCCNC(=O)NCCC(N)(CCNC(=O)NCCOCCOCCNS(=O)(=O)c3cccc([C@@H]4CN(C)Cc5c(Cl)cc(Cl)cc54)c3)CCNC(=O)NCCOCCOCCNS(=O)(=O)c3cccc([C@@H]4CN(C)Cc5c(Cl)cc(Cl)cc54)c3)c2)C1 | 44.7
29 | CN1Cc2c(Cl)cc(Cl)cc2[C@H](c2cccc(S(=O)(=O)NCCOCCOCCNC(=O)CCC(CCC(=O)NCCOCCOCCNS(=O)(=O)c3cccc([C@@H]4CN(C)Cc5c(Cl)cc(Cl)cc54)c3)(CCC(=O)NCCOCCOCCNS(=O)(=O)c3cccc([C@H]4c5cc(Cl)cc(Cl)c5CCN4C)c3)NC(=O)N[C@@H](CC(=O)O)C(=O)O)c2)C1 | 25.1
